This note sets out measurements from patent US10617680B2 (CELGENE QUANTICEL RESEARCH, INC., priority 2017, dated 2020).

In general, IC50 refers to the concentration that inhibits the measured activity by half.

Sequence of CBP (Q92793 1081-1197): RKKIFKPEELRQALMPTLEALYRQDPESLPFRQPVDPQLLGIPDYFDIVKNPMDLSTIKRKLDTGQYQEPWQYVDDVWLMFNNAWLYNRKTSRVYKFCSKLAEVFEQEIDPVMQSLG

The target of this test is CBP (Homo sapiens (Human), UniProt Q92793). As to the kind of experiment: In vitro CBP inhibition (AlphaScreen, biotinylated H4-tetraacetyl peptide). The class given is binding. The note with it: AlphaScreen, Table 29; read-out: CBP IC50. An outline of the steps:
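His-tagged CBP expressed in E. coli (50 nM final) incubated with biotinylated H4K5/8/12/16(Ac) peptide (20 nM final) in 50 mM HEPES pH 7.3, 10 mM NaCl, 0.25 mM TCEP, 0.1% BSA, 0.005% Brij-35, 0.4% DMSO, 20 min at room temp.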
Background: Alpha assays give light when donor and acceptor beads are brought close together.
In the case of `Cn1cc(-c2cc(=O)n(C)cc2-c2cnn(CC3CC3(F)F)c2)cn1` (stereo not drawn) [Example 192, 5-[1-(2,2-Difluoro-cyclopropylmethyl)-1H-pyrazol-4-yl]-1-methyl-4-(1-methyl-1H-pyrazol-4-yl)-1H-pyridin-2-one], the half-inhibitory concentration (IC50) was below 500 nM.
Regarding `Cn1cc(-c2cnn(Cc3ccccc3)c2)c(-c2cc[nH]c(=O)c2)cc1=O` [Example 193, 5-(1-Benzyl-1 H-pyrazol-4-yl)-1-methyl-1H,1′H-[4,4′]bipyridinyl-2,2′-dione], the IC50 is below 500 nM.
The value for `Cn1cc(-c2cnn(Cc3ccccc3)c2)c(-c2ccc(=O)[nH]c2)cc1=O` [Example 194, 5′-(1-Benzyl-1H-pyrazol-4-yl)-1′-methyl-1H,1′H-[3,4′]bipyridinyl-6,2′-dione] was below 500 nM.
To `Cc1c(-c2cnn(Cc3ccccc3)c2)ccc(=O)n1C` [Example 195, 5-(1-Benzyl-1H-pyrazol-4-yl)-1,6-dimethyl-1H-pyridin-2-one] belongs above 5000 nM.
As for `CC(c1ccccc1)n1cc(-c2cc(N(C)C)c(=O)n(C)c2)cn1` (stereo not drawn) [Example 196, 3-Dimethylamino-1-methyl-5-[1-(1-phenyl-ethyl)-1H-pyrazol-4-yl]-1H-pyridin-2-one], the IC50 fell in the range of 500 to 5000 nM.
In the case of `CC(c1ccccc1)n1cc(-c2cc(C3CC3)c(=O)n(C)c2)cn1` (stereo not drawn) [Example 197, 3-Cyclopropyl-1-methyl-5-[1-(1-phenyl-ethyl)1H-pyrazol-4-yl]-1H-pyridin-2-one], the IC50 is above 5000 nM.
Consider `CCOC(=O)c1nn(Cc2ccccc2)cc1-c1cc(C)c(=O)n(C)c1` [Example 198, 1-Benzyl-4-(1,5-dimethyl-6-oxo-1,6-dihydro-pyridin-3-yl)-1H-pyrazole-3-carboxylic acid ethyl ester], for which the IC50 was below 500 nM.
For `CCOC(=O)c1c(-c2cc(C)c(=O)n(C)c2)cnn1Cc1ccccc1` [Example 199, 2-Benzyl-4-(1,5-dimethyl-6-oxo-1,6-dihydro-pyridin-3-yl)-2H-pyrazole-3-carboxylic acid ethyl ester], the IC50 is below 500 nM.
Regarding `Cn1cc(-c2cnn(Cc3ccccc3)c2)c(N)cc1=O` [Example 200, 4-amino-5-(1-benzyl-1H-pyrazol-4-yl)-1-methylpyridin-2(1H)-one], the half-maximal inhibitory concentration (IC50) is 500 to 5000 nM.
Take `Cn1cc(-c2cnn(Cc3ccccc3)c2)c(NCCC(=O)O)cc1=O` [Example 201, 3-((5-(1-benzyl-1H-pyrazol-4-yl)-1-methyl-2-oxo-1,2-dihydropyridin-4-yl)amino)propanoic Acid]: the IC50 was below 500 nM.
To `CC(C)Oc1cc(=O)n(C)cc1-c1cnn(-c2ccccc2C#N)c1` [Example 202, 2-[4-(4-Isopropoxy-1-methyl-6-oxo-1,6-dihydro-pyridin-3-yl)-pyrazol-1-yl]-benzonitrile] belongs below 500 nM; to `CC(C)Oc1cc(=O)n(C)cc1-c1cnn(-c2ccccc2C(=O)O)c1` [Example 203, 2-[4-(4-Isopropoxy-1-methyl-6-oxo-1,6-dihydro-pyridin-3-yl)-pyrazol-1-yl]-benzoic Acid], below 500 nM.
The value for `Cn1cc(-c2cc(=O)n(C)cc2-c2cnn(-c3ccccc3C#N)c2)cn1` [Example 204, 2-{4-[1-Methyl-4-(1-methyl-1H-pyrazol-4-yl)-6-oxo-1,6-dihydro-pyridin-3-yl]-pyrazol-1-yl}-benzonitrile] was below 500 nM.
On to `Cn1cc(-c2cnn(-c3ccccc3C#N)c2)c(-c2cc[nH]c(=O)c2)cc1=O` [Example 205, 2-[4-(1-Methyl-6,2′-dioxo-1,6,1′,2′-tetrahydro-[4,4′]bipyridinyl-3-yl)-pyrazol-1-yl]-benzonitrile], for which the IC50 was below 500 nM.
On to `Cn1cc(-c2cnn(-c3ccccc3C#N)c2)c(-c2ccc(=O)[nH]c2)cc1=O` [Example 206, 2-[4-(1′-Methyl-6,6′-dioxo-1,6,1′,6′-tetrahydro-[3,4′]bipyridinyl-3′-yl)-pyrazol-1-y]benzonitrile], for which the IC50 was below 500 nM.
On to `Cn1cc(-c2cnn(-c3ccccc3C#N)c2)c(C2CC2)cc1=O` [Example 207, 2-[4-(4-Cyclopropyl-1-methyl-6-oxo-1,6-dihydro-pyridin-3-yl)-pyrazol-1-yl]-benzonitrile], for which the IC50 was below 500 nM.
The value for `Cn1cc(-c2cc(=O)n(C)cc2-c2cnn(-c3ccccc3C(=O)O)c2)cn1` [Example 208, 2-{4-[1-Methyl-4-(1-methyl-1H-pyrazol-4-yl)-6-oxo-1,6-dihydro-pyridin-3-yl]-pyrazol-1-yl}-benzoic acid] was below 500 nM; that for `Cn1cc(-c2cc(=O)n(C)cc2-c2cnn(-c3ccccc3C#N)c2)ccc1=O` [Example 209, 2-[4-(1,1′-Dimethyl-6,6′-dioxo-1,6,1′,6′-tetrahydro-[3,4′]bipyridinyl-3′-yl)-pyrazol-1-yl]-benzonitrile] was below 500 nM.
In the case of `Cc1cc(-c2cc(=O)n(C)cc2-c2cnn(-c3ccccc3C#N)c2)c[nH]c1=O` [Example 210, 2-[4-(5,1′-Dimethyl-6,6′-dioxo-1,6,1′,6′-tetrahydro-[3,4′]bipyridinyl-3′-yl)-pyrazol-1-yl]-benzonitrile], the IC50 was below 500 nM.
As for `Cn1cc(-c2cnn(-c3ccccc3C(=O)O)c2)c(C2CC2)cc1=O` [Example 211, 2-[4-(4-Cyclopropyl-1-methyl-6-oxo-1,6-dihydro-pyridin-3-yl)-pyrazol-1-yl]-benzoic acid], the IC50 was below 500 nM.
To `Cn1cc(-c2cnn(-c3ccccc3C#N)c2)c(-c2ccccc2)cc1=O` [Example 212, 2-[4-(1-Methyl-6-oxo-4-phenyl-1,6-dihydro-pyridin-3-yl)-pyrazol-1-yl]-benzonitrile] belongs below 500 nM; to `Cc1ccc(-c2cc(=O)n(C)cc2-c2cnn(-c3ccccc3C#N)c2)cc1` [Example 213, 2-[4-(1-Methyl-6-oxo-4-p-tolyl-1,6-dihydro-pyridin-3-yl)-pyrazol-1-yl]-benzonitrile], below 500 nM.
The value for `Cn1cc(-c2cnn(-c3ccccc3C#N)c2)c(-c2ccc(Cl)cc2)cc1=O` [Example 214, 2-{4-[4-(4-Chloro-phenyl)-1-methyl-6-oxo-1,6-dihydro-pyridin-3-yl]-pyrazol-1-yl}-benzonitrile] was below 500 nM.
The value for `Cn1cc(-c2cnn(-c3ccccc3C#N)c2)c(-c2ccc(F)cc2)cc1=O` [Example 215, 2-{4-[4-(4-Fluoro-phenyl)-1-methyl-6-oxo-1,6-dihydro-pyridin-3-yl]-pyrazol-1-yl}-benzonitrile] was below 500 nM; that for `Cn1cc(-c2cnn(-c3ccccc3C#N)c2)c(-c2cccc(Cl)c2)cc1=O` [Example 216, 2-{4-[4-(3-Chloro-phenyl)-1-methyl-6-oxo-1,6-dihydro-pyridin-3-yl]-pyrazol-1-yl}-benzonitrile] was below 500 nM; that for `Cn1cc(-c2cnn(-c3ccccc3C#N)c2)c(-c2ccc(C(=O)O)cc2)cc1=O` [Example 217, 4-{5-[1-(2-Cyano-phenyl)-1H-pyrazol-4-yl]-1-methyl-2-oxo-1,2-dihydro-pyridin-4-yl}-benzoic acid] was below 500 nM.
Regarding `Cn1cc(-c2cnn(-c3ccccc3C#N)c2)c(-c2ccc(C(N)=O)cc2)cc1=O` [Example 218, 4-{5-[1-(2-Cyano-phenyl)-1H-pyrazol-4-yl]-1-methyl-2-oxo-1,2-dihydro-pyridin-4-yl}-benzamide], the IC50 is below 500 nM.
As to `CNC(=O)c1ccc(-c2cc(=O)n(C)cc2-c2cnn(-c3ccccc3C#N)c2)cc1` [Example 219, 4-{5-[1-(2-Cyano-phenyl)-1H-pyrazol-4-yl]-1-methyl-2-oxo-1,2-dihydro-pyridin-4-yl}-N-methyl-benzamide], the IC50 is below 500 nM.
The value for `COc1cc(-c2cc(=O)n(C)cc2-c2cnn(-c3ccccc3C#N)c2)ccn1` [Example 220, 2-[4-(2′-Methoxy-1-methyl-6-oxo-1,6-dihydro-[4,4′]bipyridinyl-3-yl)-pyrazol-1-yl]-benzonitrile] was below 500 nM.
To `Cn1ccc(-c2cc(=O)n(C)cc2-c2cnn(-c3ccccc3C#N)c2)cc1=O` [Example 221, 2-[4-(1,1′-Dimethyl-6,2′-dioxo-1,6,1′,2′-tetrahydro-[4,4′]bipyridinyl-3-yl)-pyrazol-1-yl]-benzonitrile] belongs below 500 nM; to `Cn1cc(-c2cnn(-c3ccccc3C#N)c2)c(-c2ccn(C3CC3)c(=O)c2)cc1=O` [Example 222, 2-[4-(1′-Cyclopropyl-1-methyl-6,2′-dioxo-1,6,1′,2′-tetrahydro-[4,4′]bipyridinyl-3-yl)-pyrazol-1-yl]-benzonitrile], below 500 nM; to `Cc1ccc(-c2cc(=O)n(C)cc2-c2cnn(-c3ccccc3C(=O)O)c2)cc1` [Example 224, 2-[4-(1-Methyl-6-oxo-4-p-tolyl-1,6-dihydro-pyridin-3-yl)-pyrazol-1-yl]-benzoic acid], below 500 nM.
The value for `Cn1cc(-c2cnn(-c3ccccc3C(=O)O)c2)c(-c2ccc(F)cc2)cc1=O` [Example 226, 2-{4-[4-(4-Fluoro-phenyl)-1-methyl-6-oxo-1,6-dihydro-pyridin-3-yl]-pyrazol-1-yl}-benzoic acid] was below 500 nM; that for `Cn1cc(-c2cnn(-c3ccccc3C(=O)O)c2)c(-c2cccnc2)cc1=O` [Example 227, 2-[4-(1′-Methyl-6′-oxo-1′,6′-dihydro-[3,4′]bipyridinyl-3′-yl)-pyrazol-1-yl]-benzoic acid] was below 500 nM.
Take `COc1ccc(-c2cc(=O)n(C)cc2-c2cnn(-c3ccccc3C(=O)O)c2)cn1` [Example 228, 2-[4-(6-Methoxy-1′-methyl-6′-oxo-1′,6′-dihydro-[3,4′]bipyridinyl-3′-yl)-pyrazol-1-yl]-benzoic acid]: the IC50 is below 500 nM.
For the compound `CCOc1ccc(-c2cc(=O)n(C)cc2-c2cnn(-c3ccccc3C(=O)O)c2)cn1` [Example 230, 2-[4-(6-Ethoxy-1′-methyl-6′-oxo-1′,6′-dihydro-[3,4′]bipyridinyl-3′-yl)-pyrazol-1-yl]-benzoic acid], the IC50 is below 500 nM.
